From ChEMBL document CHEMBL1201862, “PubChem BioAssay data set” (2004)
Values joined by “and” are separate entries in the source; they are usually repeats but may differ in a detail not shown here. Identical values can stand only once. Counter-ions that a name gives are not always drawn. Active and inactive are the calls of the source.

What was measured:
[1] = biological target: Glyceraldehyde-3-phosphate dehydrogenase (Homo sapiens, UniProt P04406)
[2] = viability of PTEN-deleted HCT116 cells – cell-based, HCT116 PTEN knockout, dose response (AID 1047); format: functional;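 note: HCT116 colon tumor cells with PTEN knocked out; cells exposed to compound for 60 hours before readout; potency for loss of cell viability measured by luminescence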
Bcl-2-related protein A1 [3] = biological target: T1, Bcl-2-related protein A1 (Mus musculus, UniProt Q07440); assay: Bfl-1 binding inhibitors, SAR follow-up, biochemical, fluorescence polarization (AID 1070)
T1 sequence (Q07440 whole entry): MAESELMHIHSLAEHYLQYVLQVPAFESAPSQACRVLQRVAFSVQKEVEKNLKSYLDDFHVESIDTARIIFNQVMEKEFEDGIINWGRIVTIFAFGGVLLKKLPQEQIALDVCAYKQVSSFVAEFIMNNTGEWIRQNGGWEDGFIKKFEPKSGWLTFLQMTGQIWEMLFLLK

[4] = viability of HCT116 lacking mutant beta-catenin – cell-based, human colon tumor, dose response (AID 1045); format: functional;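 note: HCT116 colon tumor cells with beta catenin knocked out; cells exposed to compound for 60 hours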
Estrogen receptor beta = Estrogen receptor beta (Homo sapiens, UniProt Q92731); assay: blockers of SRC-3 recruitment to ERβ – biochemical, ELISA, streptavidin-HRP readout, orthogonal assay, confirmation (AID 1060)
Estrogen receptor beta, sequence (Q92731 whole entry): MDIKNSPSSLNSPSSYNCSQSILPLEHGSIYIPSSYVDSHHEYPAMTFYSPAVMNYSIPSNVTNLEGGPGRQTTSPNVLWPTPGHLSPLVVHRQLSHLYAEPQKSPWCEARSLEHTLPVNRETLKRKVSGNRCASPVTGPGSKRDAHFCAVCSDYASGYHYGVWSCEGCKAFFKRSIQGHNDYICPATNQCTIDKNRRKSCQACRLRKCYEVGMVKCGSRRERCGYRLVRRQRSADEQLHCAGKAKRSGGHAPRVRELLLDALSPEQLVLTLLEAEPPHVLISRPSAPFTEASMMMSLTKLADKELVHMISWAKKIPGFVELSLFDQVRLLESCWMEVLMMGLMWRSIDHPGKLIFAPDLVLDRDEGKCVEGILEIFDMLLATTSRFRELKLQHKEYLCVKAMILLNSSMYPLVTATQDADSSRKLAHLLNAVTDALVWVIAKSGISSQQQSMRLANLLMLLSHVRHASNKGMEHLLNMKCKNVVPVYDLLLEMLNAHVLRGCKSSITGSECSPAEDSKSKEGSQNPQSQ

Bcl-2-related protein A1 [5] = biological target: T1, Bcl-2-related protein A1; assay: small-molecule antagonists of Bfl-1/BH3 interaction – biochemical, TR-FRET, mouse Bfl-1, confirmation (AID 621);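 note: TR-FRET binding of GST-Bfl-1 to FITC-labelled Bid peptide via terbium antibody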
Bcl-2-related protein A1 [6] = biological target: T1, Bcl-2-related protein A1; assay: displacement of Bid BH3 peptide from Bfl-1 – biochemical, fluorescence polarization, FITC-Bid, mouse, primary screen (AID 432)
[7] = biological target: Peroxisome proliferator-activated receptor gamma/Nuclear receptor corepressor 2 (Homo sapiens, UniProt P37231+Q9Y618); assay: Counterscreen for NR2E3 inverse agonists: TR-FRET-based biochemical high throughput dose response assay to identify inverse agonists of the interaction between peroxisome proliferator-activated receptor gamma (PPARg) and nuclear receptor co-repressor 2 (NCOR2).; format: functional
[8] = biological target: Photoreceptor-specific nuclear receptor (Homo sapiens, UniProt Q9Y5X4); assay: ligands suppressing NR2E3 nuclear receptor activity – biochemical, TR-FRET, dose response (AID 463256); format: functional
Photoreceptor-specific nuclear receptor, sequence (Q9Y5X4 whole entry): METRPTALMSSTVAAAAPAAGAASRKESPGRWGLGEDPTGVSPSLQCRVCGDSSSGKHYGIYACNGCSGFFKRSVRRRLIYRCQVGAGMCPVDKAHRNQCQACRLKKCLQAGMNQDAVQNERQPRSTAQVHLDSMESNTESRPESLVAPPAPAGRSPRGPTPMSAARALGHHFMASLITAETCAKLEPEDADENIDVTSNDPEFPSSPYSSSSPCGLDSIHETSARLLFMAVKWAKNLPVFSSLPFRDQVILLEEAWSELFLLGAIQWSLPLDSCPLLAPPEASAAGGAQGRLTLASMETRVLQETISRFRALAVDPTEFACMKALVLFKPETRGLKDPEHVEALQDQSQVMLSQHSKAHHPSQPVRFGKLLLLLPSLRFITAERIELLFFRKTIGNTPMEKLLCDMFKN

[9] = biological target: Glucose-6-phosphate 1-dehydrogenase (Homo sapiens, UniProt P11413); assay: inhibition of Homo sapiens G6PD, dose series – biochemical, fluorescence, selectivity assay for P. falciparum G6PD inhibitor project, dose response (AID 504792); format: functional
[10] = biological target: Bifunctional protein GlmU (Mycobacterium tuberculosis, UniProt P9WMN3); assay: Inhibitors of Mycobacterial Glucosamine-1-phosphate acetyl transferase (GlmU). Secondary screen.; parameters: species or system Mycobacterium tuberculosis H37Rv
Bifunctional protein GlmU, sequence (P9WMN3 whole entry): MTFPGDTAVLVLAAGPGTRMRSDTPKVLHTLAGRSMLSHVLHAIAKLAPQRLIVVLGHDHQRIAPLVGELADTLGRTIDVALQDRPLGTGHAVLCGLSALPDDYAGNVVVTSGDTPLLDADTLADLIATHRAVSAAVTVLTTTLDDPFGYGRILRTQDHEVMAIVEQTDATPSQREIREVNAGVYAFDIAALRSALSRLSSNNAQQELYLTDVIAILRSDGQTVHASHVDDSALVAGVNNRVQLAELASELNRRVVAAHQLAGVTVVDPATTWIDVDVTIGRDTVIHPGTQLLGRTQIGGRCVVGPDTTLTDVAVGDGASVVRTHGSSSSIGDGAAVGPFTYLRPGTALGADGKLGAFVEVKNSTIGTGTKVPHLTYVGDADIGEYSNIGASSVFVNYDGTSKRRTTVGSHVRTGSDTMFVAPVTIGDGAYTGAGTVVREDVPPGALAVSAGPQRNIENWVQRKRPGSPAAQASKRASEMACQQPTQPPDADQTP

[11] = biological target: T2, Voltage-gated N-type calcium channel alpha-1B subunit/Amyloid beta A4 precursor protein-binding family A member 1 (Homo sapiens, UniProt Q00975+Q02410); format: protein assay
T2 sequence (Q00975 whole entry): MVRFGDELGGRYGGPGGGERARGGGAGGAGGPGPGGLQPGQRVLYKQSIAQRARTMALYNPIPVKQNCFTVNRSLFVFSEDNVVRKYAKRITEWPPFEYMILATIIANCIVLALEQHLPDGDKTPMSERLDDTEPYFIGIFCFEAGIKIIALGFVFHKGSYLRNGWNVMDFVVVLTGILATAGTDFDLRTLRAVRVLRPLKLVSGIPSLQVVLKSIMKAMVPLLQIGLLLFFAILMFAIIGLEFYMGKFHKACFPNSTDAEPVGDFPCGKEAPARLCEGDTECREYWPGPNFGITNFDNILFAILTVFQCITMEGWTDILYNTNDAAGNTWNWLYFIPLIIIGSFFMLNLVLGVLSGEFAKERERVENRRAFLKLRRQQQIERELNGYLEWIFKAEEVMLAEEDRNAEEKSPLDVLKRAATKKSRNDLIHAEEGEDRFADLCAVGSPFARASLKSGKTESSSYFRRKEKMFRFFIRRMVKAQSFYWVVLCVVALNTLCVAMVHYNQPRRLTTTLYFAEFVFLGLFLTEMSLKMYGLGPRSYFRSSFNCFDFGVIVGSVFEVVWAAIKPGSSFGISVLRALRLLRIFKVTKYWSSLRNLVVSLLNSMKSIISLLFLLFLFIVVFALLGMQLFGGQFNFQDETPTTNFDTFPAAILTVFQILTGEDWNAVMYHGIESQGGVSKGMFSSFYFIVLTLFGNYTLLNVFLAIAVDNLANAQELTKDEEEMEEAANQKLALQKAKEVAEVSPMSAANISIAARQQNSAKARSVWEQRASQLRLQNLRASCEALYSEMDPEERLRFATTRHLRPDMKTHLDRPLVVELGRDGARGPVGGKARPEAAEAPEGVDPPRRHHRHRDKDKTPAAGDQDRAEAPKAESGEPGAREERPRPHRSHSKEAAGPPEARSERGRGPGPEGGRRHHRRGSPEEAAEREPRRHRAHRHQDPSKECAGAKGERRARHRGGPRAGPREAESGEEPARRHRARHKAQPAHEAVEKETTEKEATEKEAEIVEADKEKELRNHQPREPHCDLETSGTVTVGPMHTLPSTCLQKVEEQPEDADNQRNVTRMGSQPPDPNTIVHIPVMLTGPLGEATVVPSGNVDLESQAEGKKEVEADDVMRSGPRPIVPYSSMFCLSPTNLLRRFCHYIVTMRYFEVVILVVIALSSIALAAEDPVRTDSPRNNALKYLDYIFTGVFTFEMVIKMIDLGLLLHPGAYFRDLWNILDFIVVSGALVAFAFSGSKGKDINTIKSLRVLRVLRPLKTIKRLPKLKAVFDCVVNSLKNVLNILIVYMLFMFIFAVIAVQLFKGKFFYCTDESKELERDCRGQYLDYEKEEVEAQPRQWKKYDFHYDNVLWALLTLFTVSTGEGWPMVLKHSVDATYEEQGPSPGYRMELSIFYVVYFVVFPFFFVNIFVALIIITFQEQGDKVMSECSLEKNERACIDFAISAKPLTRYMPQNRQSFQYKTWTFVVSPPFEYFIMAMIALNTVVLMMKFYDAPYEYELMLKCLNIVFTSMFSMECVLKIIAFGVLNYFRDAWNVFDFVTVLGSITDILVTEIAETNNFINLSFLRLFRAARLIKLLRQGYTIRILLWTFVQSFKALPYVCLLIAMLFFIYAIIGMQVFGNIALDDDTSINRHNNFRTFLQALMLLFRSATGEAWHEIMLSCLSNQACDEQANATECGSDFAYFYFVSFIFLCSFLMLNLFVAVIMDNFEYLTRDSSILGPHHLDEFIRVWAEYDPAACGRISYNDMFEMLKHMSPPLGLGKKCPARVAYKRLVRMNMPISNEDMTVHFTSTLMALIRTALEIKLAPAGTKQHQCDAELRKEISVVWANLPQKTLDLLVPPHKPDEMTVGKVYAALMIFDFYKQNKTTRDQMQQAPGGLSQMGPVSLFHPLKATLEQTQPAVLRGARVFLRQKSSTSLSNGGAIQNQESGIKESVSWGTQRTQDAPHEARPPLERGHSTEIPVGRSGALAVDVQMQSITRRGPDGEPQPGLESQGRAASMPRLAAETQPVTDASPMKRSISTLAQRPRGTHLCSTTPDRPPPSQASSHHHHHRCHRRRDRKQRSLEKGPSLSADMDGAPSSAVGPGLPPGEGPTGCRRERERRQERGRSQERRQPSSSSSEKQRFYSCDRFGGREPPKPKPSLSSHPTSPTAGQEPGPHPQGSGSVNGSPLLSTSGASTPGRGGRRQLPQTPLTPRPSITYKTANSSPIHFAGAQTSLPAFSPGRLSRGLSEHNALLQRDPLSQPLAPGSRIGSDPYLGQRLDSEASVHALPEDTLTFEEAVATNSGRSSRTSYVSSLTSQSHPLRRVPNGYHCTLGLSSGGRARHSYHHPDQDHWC
T2 sequence (Q02410 whole entry): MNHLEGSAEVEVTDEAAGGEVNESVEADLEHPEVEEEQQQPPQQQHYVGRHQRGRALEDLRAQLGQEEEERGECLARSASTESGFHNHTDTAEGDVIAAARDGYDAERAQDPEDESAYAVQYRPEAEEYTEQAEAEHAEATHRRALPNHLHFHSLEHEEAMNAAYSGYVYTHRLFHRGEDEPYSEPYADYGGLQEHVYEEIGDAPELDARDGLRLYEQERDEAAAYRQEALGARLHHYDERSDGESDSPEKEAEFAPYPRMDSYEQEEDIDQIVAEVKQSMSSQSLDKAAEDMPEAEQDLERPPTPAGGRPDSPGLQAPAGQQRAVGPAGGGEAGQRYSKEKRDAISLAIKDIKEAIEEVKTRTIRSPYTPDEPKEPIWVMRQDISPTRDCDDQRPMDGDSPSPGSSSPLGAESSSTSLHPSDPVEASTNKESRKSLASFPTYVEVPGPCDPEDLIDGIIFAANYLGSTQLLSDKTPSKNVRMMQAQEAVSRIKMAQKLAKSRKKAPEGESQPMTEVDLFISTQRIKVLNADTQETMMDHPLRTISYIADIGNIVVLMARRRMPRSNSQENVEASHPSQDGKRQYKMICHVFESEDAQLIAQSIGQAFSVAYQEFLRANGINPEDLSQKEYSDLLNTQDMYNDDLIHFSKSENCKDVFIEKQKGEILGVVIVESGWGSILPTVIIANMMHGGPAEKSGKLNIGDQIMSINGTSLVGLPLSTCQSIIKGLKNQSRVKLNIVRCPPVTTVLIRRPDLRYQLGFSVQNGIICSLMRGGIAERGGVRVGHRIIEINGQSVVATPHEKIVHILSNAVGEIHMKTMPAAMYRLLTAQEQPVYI

H9c2 = assay: cells; format: functional, cell-based; conditions: Rattus norvegicus, H9c2, Myocardium
[12] = biological target: T2, Voltage-gated N-type calcium channel alpha-1B subunit/Amyloid beta A4 precursor protein-binding family A member 1; format: protein assay; remark: listed apart in the source
[13] = biological target: Eukaryotic translation initiation factor 4E (Mus musculus, UniProt P63073); assay: blockers of eIF4G binding by eIF4E – biochemical, TR-FRET, dose response (AID 855); format: functional;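 note: potency for disrupting eIF4E binding to eIF4GI seen as loss of FRET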
Eukaryotic translation initiation factor 4E, sequence (P63073 whole entry): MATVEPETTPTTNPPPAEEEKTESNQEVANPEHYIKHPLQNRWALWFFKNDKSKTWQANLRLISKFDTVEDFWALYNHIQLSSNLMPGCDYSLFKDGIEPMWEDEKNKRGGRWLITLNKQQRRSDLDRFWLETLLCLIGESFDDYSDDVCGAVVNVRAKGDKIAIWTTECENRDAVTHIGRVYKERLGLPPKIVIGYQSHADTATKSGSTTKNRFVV

[14] = microbe, parasite or virus in culture; format: functional; conditions: Mycobacterium tuberculosis
[15] = biological target: T3, Ubiquitin-conjugating enzyme E2 N (Homo sapiens, UniProt P61088); format: functional;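 note: Dose-response confirmation in a TR-FRET assay detecting UBC13-driven polyubiquitin chain formation, inhibition measured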
T3 sequence (P61088 whole entry): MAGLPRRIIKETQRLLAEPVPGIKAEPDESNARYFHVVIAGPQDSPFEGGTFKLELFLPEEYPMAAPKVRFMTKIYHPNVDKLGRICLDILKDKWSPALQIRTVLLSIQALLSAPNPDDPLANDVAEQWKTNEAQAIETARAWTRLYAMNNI

[16] = DRD fibroblast viability loss – cell-based, non-viral oncogenic, luminescence, dose response (AID 1934); format: functional; conditions: Homo sapiens
BJ [17] = assay: BJ-TERT fibroblast viability loss – cell-based, RAS-independent, luminescence, dose response (AID 1933); format: functional; conditions: Homo sapiens
BJ [18] = assay: cells; format: functional, cell-based; conditions: Homo sapiens
[19] = biological target: Heat shock protein HSP 90-alpha (Homo sapiens, UniProt P07900); assay: Luminescence-based dose response biochemical high throughput screening assay for inhibitors of the Heat Shock Protein 90 (HSP90). [Related pubchem assays: 1831 (Summary AID.), 1846 (Confirmation screen.), 1789 (Primary screen.)]
BJ [20] = assay: BJ-TERT-LT-ST fibroblast viability loss – cell-based, RAS-independent, luminescence, dose response (AID 1935); format: functional; conditions: Homo sapiens;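 note: BJ fibroblasts immortalized with TERT plus LT and ST oncogenes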
[21] = luciferase reporter signal suppression in cells – H4 neuroglioma cells, luminescence, dose response (AID 1990); format: functional, cell-based
[22] = Luminescence Cell-Based Dose Response HTS to Identify Inhibitors of 5'UTR Stem-Loop Driven Prion Protein mRNA Translation in H4 Neuroglioblastoma Cells. [Related pubchem assays: 1827 (Project Summary), 1813 (Primary HTS)]; format: functional
[23] = alpha-synuclein stem-loop luciferase translation blockers – H4 neuroglioma cells, luminescence, confirmation (AID 1988); format: functional, cell-based
[24] = rise of 4N DNA cells, HeLa – IC50, dose response (AID 1117351); format: functional, cell-based
[25] = rise of 2N DNA cells, HeLa – IC50, dose response (AID 1117349); format: functional, cell-based
cells = format: functional, cell-based; conditions: INS-1E
[26] = IC50 of insulin release inhibition, rat insulinoma INS-1E line, 5 mM glucose, cell-based (AID 1117331); format: functional
14-3-3 protein gamma = 14-3-3 protein gamma (Homo sapiens, UniProt P61981); assay: modulators of 14-3-3 gamma client binding – dose response (AID 711); format: functional
14-3-3 protein gamma, sequence (P61981 whole entry): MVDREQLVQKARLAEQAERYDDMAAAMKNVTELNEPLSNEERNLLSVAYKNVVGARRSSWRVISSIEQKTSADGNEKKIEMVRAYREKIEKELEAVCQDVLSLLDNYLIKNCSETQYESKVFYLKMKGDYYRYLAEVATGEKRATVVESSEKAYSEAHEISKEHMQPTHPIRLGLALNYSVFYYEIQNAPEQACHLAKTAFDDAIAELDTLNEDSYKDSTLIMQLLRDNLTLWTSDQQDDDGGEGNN

## CC1CCN(Cc2ccc(NC(=O)C3CCN(c4nnc(-n5cccc5)s4)CC3)cc2)CC1
[1]
  IC50: > 100 µM (not active)
[2]
  EC50: 21.4 µM (active)
Bcl-2-related protein A1 [3]
  IC50: 20.8 µM (active)
[4]
  EC50: 61.6 µM (active)
Estrogen receptor beta
  IC50: 1.1 µM (not active)
Bcl-2-related protein A1 [5]
  IC50: 35.1 µM (active) and > 100 µM (not active)
Bcl-2-related protein A1 [6]
  IC50: > 100 µM (not active)

## CC(=O)Nc1ccc(NC(=O)CNC(=O)c2sc3ccccc3c2Cl)cc1
[7]
  IC50: 11.1 µM (not active)
[8]
  IC50: 15.5 µM (not active)

## O=C1Nc2ccccc2C(=O)C1(Cl)Cc1ccccc1 (stereo not given)
[9]
  IC50: > 80 µM (inactive)
[10]
  IC50: 62.9 µM (active)
[11]
  IC50: 23.3 µM (active)
H9c2
  IC50: 17.2 µM (active)
[12]
  IC50: > 50 µM (inactive)
[13]
  IC50: > 64 µM (inactive)

## COc1ccc(-c2cc3c(=O)n(CC(=O)NCCCN4CCC(Cc5ccccc5)CC4)ncn3n2)cc1
[14]
  CC50: 34.2 µM (active)
[15]
  IC50: > 20 µM (inactive)
[16]
  EC50: 8.08 µM (active)
BJ [17]
  EC50: 10.1 µM (active)
BJ [18]
  EC50: 16.4 µM (active)
[19]
  IC50: 6.82 µM (active)
BJ [20]
  EC50: 12.9 µM (inconclusive)
[21]
  EC50: 9.23 µM (inconclusive)
[22]
  EC50: 11.4 µM (active)
[23]
  EC50: 8.06 µM (active)

## CC(=O)Oc1ccccc1C(=O)Nc1ncc([N+](=O)[O-])s1 [NITAZOXANIDE]
[24]
  IC50: > 10 µM (inactive)
[25]
  IC50: > 10 µM (inactive)

## NCc1ccc(S(N)(=O)=O)cc1 [MAFENIDE HYDROCHLORIDE]
cells
  IC50: > 33.3 µM (inactive)
[26]
  IC50: > 33.3 µM (inactive)

## OC(CN1CCOCC1)CN(c1ccccc1)c1ccccc1 (stereo not given)
14-3-3 protein gamma
  IC50: > 50 µM (not active)
